Values quoted from earlier work in US7887847B2, “Nutritional supplement for treatment of ocular diseases” (priority 2004, dated 2011).

Test system: macular degeneration
Conditions: adults with the highest dietary intake compared with people with the lowest intake

## CC1=C[C@H](O)CC(C)(C)[C@H]1/C=C/C(C)=C/C=C/C(C)=C/C=C/C=C(C)/C=C/C=C(C)/C=C/C1=C(C)C[C@@H](O)CC1(C)C [lutein, Lutein]
  decreased risk of macular degeneration: 57%
